Measured values taken from the NIST ThermoML archive (doi:10.1021/acs.jced.8b00662).
Numbers after ± are expanded uncertainties.

Assay: xn = mol fraction of the nth substance listed
Settings: 100 kPa, Liquid; for viscosity: Falling or rolling sphere viscometry; for mass density: Vibrating tube method

CC(C)C1CCCCC1 [(1-methylethyl)cyclohexane] + OCC1CC1
Settings	mass density [kg/m3]	viscosity [mPa·s]
293.15 K, x1 = 0.0996	891.76 ± 1.1	–
293.15 K, x1 = 0.1003	–	3.277 ± 0.07
293.15 K, x1 = 0.1991	874.27 ± 1.1	2.592 ± 0.055
293.15 K, x1 = 0.2995	859.61 ± 1	2.18 ± 0.047
293.15 K, x1 = 0.3996	847.35 ± 1	1.862 ± 0.04
293.15 K, x1 = 0.4993	836.86 ± 1	1.621 ± 0.035
293.15 K, x1 = 0.5997	827.69 ± 1	–
293.15 K, x1 = 0.619	–	1.406 ± 0.03
293.15 K, x1 = 0.7011	819.71 ± 0.99	1.288 ± 0.028
293.15 K, x1 = 0.7967	812.9 ± 0.98	1.192 ± 0.026
293.15 K, x1 = 0.9026	806.51 ± 0.98	1.115 ± 0.024
293.15 K, x1 = 1	802.14 ± 0.97	1.093 ± 0.023
298.15 K, x1 = 0.0996	887.68 ± 1.1	–
298.15 K, x1 = 0.1003	–	2.876 ± 0.061
298.15 K, x1 = 0.1991	870.17 ± 1.1	2.286 ± 0.049
298.15 K, x1 = 0.2995	855.52 ± 1	1.937 ± 0.041
298.15 K, x1 = 0.3996	843.25 ± 1	1.668 ± 0.036
298.15 K, x1 = 0.4993	832.77 ± 1	1.463 ± 0.031
298.15 K, x1 = 0.5997	823.61 ± 1	–
298.15 K, x1 = 0.619	–	1.281 ± 0.027
298.15 K, x1 = 0.7011	815.65 ± 0.99	1.18 ± 0.025
298.15 K, x1 = 0.7967	808.85 ± 0.98	1.099 ± 0.024
298.15 K, x1 = 0.9026	802.52 ± 0.97	1.033 ± 0.022
298.15 K, x1 = 1	798.24 ± 0.97	1.016 ± 0.022
303.15 K, x1 = 0.0996	883.58 ± 1.1	–
303.15 K, x1 = 0.1003	–	2.523 ± 0.054
303.15 K, x1 = 0.1991	866.05 ± 1.1	2.028 ± 0.043
303.15 K, x1 = 0.2995	851.39 ± 1	1.729 ± 0.037
303.15 K, x1 = 0.3996	839.12 ± 1	1.499 ± 0.032
303.15 K, x1 = 0.4993	828.64 ± 1	1.325 ± 0.028
303.15 K, x1 = 0.5997	819.5 ± 0.99	–
303.15 K, x1 = 0.619	–	1.17 ± 0.025
303.15 K, x1 = 0.7011	811.56 ± 0.98	1.085 ± 0.023
303.15 K, x1 = 0.7967	804.8 ± 0.98	1.015 ± 0.022
303.15 K, x1 = 0.9026	798.52 ± 0.97	0.958 ± 0.021
303.15 K, x1 = 1	794.34 ± 0.96	0.947 ± 0.02
308.15 K, x1 = 0.0996	879.43 ± 1.1	–
308.15 K, x1 = 0.1003	–	2.227 ± 0.048
308.15 K, x1 = 0.1991	861.89 ± 1	1.807 ± 0.039
308.15 K, x1 = 0.2995	847.23 ± 1	1.551 ± 0.033
308.15 K, x1 = 0.3996	834.96 ± 1	1.356 ± 0.029
308.15 K, x1 = 0.4993	824.49 ± 1	1.207 ± 0.026
308.15 K, x1 = 0.5997	815.37 ± 0.99	–
308.15 K, x1 = 0.619	–	1.075 ± 0.023
308.15 K, x1 = 0.7011	807.46 ± 0.98	1.001 ± 0.021
308.15 K, x1 = 0.7967	800.75 ± 0.97	0.941 ± 0.02
308.15 K, x1 = 0.9026	794.49 ± 0.96	0.893 ± 0.019
308.15 K, x1 = 1	790.43 ± 0.96	0.886 ± 0.019
313.15 K, x1 = 0.0996	875.25 ± 1.1	–
313.15 K, x1 = 0.1003	–	1.912 ± 0.041
313.15 K, x1 = 0.1991	857.7 ± 1	1.617 ± 0.035
313.15 K, x1 = 0.2995	843.04 ± 1	1.399 ± 0.03
313.15 K, x1 = 0.3996	830.77 ± 1	1.231 ± 0.026
313.15 K, x1 = 0.4993	820.31 ± 0.99	1.103 ± 0.024
313.15 K, x1 = 0.5997	811.21 ± 0.98	–
313.15 K, x1 = 0.619	–	0.99 ± 0.021
313.15 K, x1 = 0.7011	803.33 ± 0.97	0.927 ± 0.02
313.15 K, x1 = 0.7967	796.66 ± 0.97	0.876 ± 0.019
313.15 K, x1 = 0.9026	790.46 ± 0.96	0.834 ± 0.018
313.15 K, x1 = 1	786.51 ± 0.95	0.831 ± 0.018
318.15 K, x1 = 0.0996	871.02 ± 1.1	–
318.15 K, x1 = 0.1003	–	1.706 ± 0.036
318.15 K, x1 = 0.1991	853.46 ± 1	1.454 ± 0.031
318.15 K, x1 = 0.2995	838.79 ± 1	1.266 ± 0.027
318.15 K, x1 = 0.3996	826.54 ± 1	1.121 ± 0.024
318.15 K, x1 = 0.4993	816.09 ± 0.99	1.012 ± 0.022
318.15 K, x1 = 0.5997	807.02 ± 0.98	–
318.15 K, x1 = 0.619	–	0.916 ± 0.02
318.15 K, x1 = 0.7011	799.17 ± 0.97	0.861 ± 0.018
318.15 K, x1 = 0.7967	792.54 ± 0.96	0.817 ± 0.018
318.15 K, x1 = 0.9026	786.41 ± 0.95	0.782 ± 0.017
318.15 K, x1 = 1	782.59 ± 0.95	0.782 ± 0.017
323.15 K, x1 = 0.0996	866.78 ± 1.1	–
323.15 K, x1 = 0.1003	–	1.525 ± 0.033
323.15 K, x1 = 0.1991	849.2 ± 1	1.312 ± 0.028
323.15 K, x1 = 0.2995	834.53 ± 1	1.151 ± 0.025
323.15 K, x1 = 0.3996	822.28 ± 1	1.027 ± 0.022
323.15 K, x1 = 0.4993	811.84 ± 0.98	0.932 ± 0.02
323.15 K, x1 = 0.5997	802.8 ± 0.97	–
323.15 K, x1 = 0.619	–	0.849 ± 0.018
323.15 K, x1 = 0.7011	794.99 ± 0.96	0.802 ± 0.017
323.15 K, x1 = 0.7967	788.4 ± 0.96	0.764 ± 0.016
323.15 K, x1 = 0.9026	782.33 ± 0.95	0.735 ± 0.016
323.15 K, x1 = 1	778.66 ± 0.95	0.738 ± 0.016
328.15 K, x1 = 0.0996	862.47 ± 1	–
328.15 K, x1 = 0.1003	–	1.372 ± 0.029
328.15 K, x1 = 0.1991	844.88 ± 1	1.189 ± 0.025
328.15 K, x1 = 0.2995	830.2 ± 1	1.05 ± 0.022
328.15 K, x1 = 0.3996	817.96 ± 0.99	0.943 ± 0.02
328.15 K, x1 = 0.4993	807.55 ± 0.98	0.861 ± 0.018
328.15 K, x1 = 0.5997	798.54 ± 0.97	–
328.15 K, x1 = 0.619	–	0.791 ± 0.017
328.15 K, x1 = 0.7011	790.77 ± 0.96	0.75 ± 0.016
328.15 K, x1 = 0.7967	784.24 ± 0.95	0.717 ± 0.015
328.15 K, x1 = 0.9026	778.25 ± 0.95	0.692 ± 0.015
328.15 K, x1 = 1	774.72 ± 0.94	0.698 ± 0.015
333.15 K, x1 = 0.0996	858.1 ± 1	–
333.15 K, x1 = 0.1003	–	1.239 ± 0.026
333.15 K, x1 = 0.1991	840.5 ± 1	1.082 ± 0.023
333.15 K, x1 = 0.2995	825.83 ± 1	0.961 ± 0.021
333.15 K, x1 = 0.3996	813.6 ± 0.99	0.869 ± 0.019
333.15 K, x1 = 0.4993	803.22 ± 0.97	0.799 ± 0.017
333.15 K, x1 = 0.5997	794.24 ± 0.96	–
333.15 K, x1 = 0.619	–	0.738 ± 0.016
333.15 K, x1 = 0.7011	786.52 ± 0.95	0.702 ± 0.015
333.15 K, x1 = 0.7967	780.04 ± 0.95	0.674 ± 0.014
333.15 K, x1 = 0.9026	774.14 ± 0.94	0.654 ± 0.014
333.15 K, x1 = 1	770.77 ± 0.94	0.661 ± 0.014
338.15 K, x1 = 0.0996	853.67 ± 1	–
338.15 K, x1 = 0.1003	–	1.124 ± 0.024
338.15 K, x1 = 0.1991	836.06 ± 1	0.988 ± 0.021
338.15 K, x1 = 0.2995	821.41 ± 0.99	0.883 ± 0.019
338.15 K, x1 = 0.3996	809.2 ± 0.98	0.804 ± 0.017
338.15 K, x1 = 0.4993	798.85 ± 0.97	0.743 ± 0.016
338.15 K, x1 = 0.5997	789.91 ± 0.96	–
338.15 K, x1 = 0.619	–	0.69 ± 0.015
338.15 K, x1 = 0.7011	782.24 ± 0.95	0.66 ± 0.014
338.15 K, x1 = 0.7967	775.82 ± 0.94	0.636 ± 0.014
338.15 K, x1 = 0.9026	770.01 ± 0.94	0.619 ± 0.013
338.15 K, x1 = 1	766.81 ± 0.93	0.628 ± 0.013
343.15 K, x1 = 0.0996	849.17 ± 1	–
343.15 K, x1 = 0.1003	–	1.023 ± 0.022
343.15 K, x1 = 0.1991	831.57 ± 1	0.905 ± 0.019
343.15 K, x1 = 0.2995	816.93 ± 0.99	0.815 ± 0.017
343.15 K, x1 = 0.3996	804.75 ± 0.97	0.746 ± 0.016
343.15 K, x1 = 0.4993	794.44 ± 0.96	0.693 ± 0.015
343.15 K, x1 = 0.5997	785.54 ± 0.95	–
343.15 K, x1 = 0.619	–	0.648 ± 0.014
343.15 K, x1 = 0.7011	777.93 ± 0.94	0.622 ± 0.013
343.15 K, x1 = 0.7967	771.58 ± 0.94	0.601 ± 0.013
343.15 K, x1 = 0.9026	765.88 ± 0.93	0.587 ± 0.013
343.15 K, x1 = 1	762.84 ± 0.93	0.598 ± 0.013
